The text below walks through data of patent US12161723B2, “Water-based cannabinoid and opioid compositions” (DAY THREE LABS MAN[…]., priority 2014, dated 2024).

Data set [1] has as its target T1, BSA (Bos taurus, UniProt P02769). Description: Cannabis extract combined with albumin solution, cannabinoids adsorbed to BSA (Example 2a). It counts as binding, bovine. Conditions: albumin solution 10 mg/ml (BSA) with 20% ethanol, 2 hours at room temperature. As to the method: (§1) Cannabis extract was prepared as follows: In short, cannabis plant matter is dried, ground and homogenized to form ground cannabis. The ground cannabis is extracted with methanol/chloroform (volume/volume ratio of 9:1). Sonication and filtration is then performed. Identity of cannabinoids is determined by HPLC by evaporation, dissolution in an appropriate solvent.
(§2) Drying of the cannabis plant matter occurs under high vacuum at about 37±2° C. for about 24 hours and then ground to form a fine powder. 200 mg of ground powder is combined with 10 ml of methanol/chloroform, and sonicated in an ice bath for 30 minutes at maximum power. The supernatant is then filtered through a 0.2 micron filter.
(§3) A sample of the cannabis extract was analyzed for content of cannabinoids. The cannabis extract was then combined with albumin solution having 20% ethanol at 10 mg/ml (BSA) and incubated for 2 hours at room temperature.

The conditions of data set [2]: 3 g high THC strain; 200 ml ethanol concentrated to about 3 ml.
Data set [3] can be described thus: Cannabis smoke/vapor passed through pure ethanol, cannabinoid profile (Example 1d). Conditions: for relative concentration of cannabinoids (relative to total cannabinoid content), Vapor passed through ethanol: vapor at 210° C. It counts as physicochemical. On the procedure: (§4) To show which cannabinoid compounds are solubilized in processes using BSA versus organic solvents, cannabis from two different batches was smoked and or vaporized. Vapor was formed using a “volcano” vaporizer at a temperature of 210° C. The smoke/vapor was passed through either a BSA/water/ethanol solution described in example 1b, comprising 33% by volume ethanol or through a pure ethanol (99% ethanol) solution. Solutions were stirred using a magnetic stirrer and were incubated for 48 hours, during which time, most of the ethanol evaporated. One of the batches of cannabis was high in THC, and the other batch of cannabis was high in both THC and CBD.

The nature of data set [4]: Cannabinoid content of cannabis extract (Example 2a). It counts as physicochemical. Conditions: methanol/chloroform 9:1 cannabis extract. On the procedure:
as §1, §2, §3

The target in data set [5] is T1, BSA. As to the kind of experiment: Cannabis smoke/vapor passed through BSA/water/ethanol solution, cannabinoid profile (Example 1d). The settings on record: 33% ethanol, 48 hours incubation, washed. It counts as binding, bovine. As to the method: as §4
The BSA/water/ethanol solution was washed after smoke or vapor was combined with it, and the amount of cannabinoids present was analyzed. The results of the comparison of relative concentration of cannabinoids (relative to total cannabinoid content) as expressed in percent (weight/weight), for a strain of cannabis high in THC are shown in the table below.

For data set [6], the target named is T2, bovine serum albumin (BSA) (Bos taurus, UniProt P02769).
T2 construct: purchased Millipore, USA
T2 sequence (P02769 25-607): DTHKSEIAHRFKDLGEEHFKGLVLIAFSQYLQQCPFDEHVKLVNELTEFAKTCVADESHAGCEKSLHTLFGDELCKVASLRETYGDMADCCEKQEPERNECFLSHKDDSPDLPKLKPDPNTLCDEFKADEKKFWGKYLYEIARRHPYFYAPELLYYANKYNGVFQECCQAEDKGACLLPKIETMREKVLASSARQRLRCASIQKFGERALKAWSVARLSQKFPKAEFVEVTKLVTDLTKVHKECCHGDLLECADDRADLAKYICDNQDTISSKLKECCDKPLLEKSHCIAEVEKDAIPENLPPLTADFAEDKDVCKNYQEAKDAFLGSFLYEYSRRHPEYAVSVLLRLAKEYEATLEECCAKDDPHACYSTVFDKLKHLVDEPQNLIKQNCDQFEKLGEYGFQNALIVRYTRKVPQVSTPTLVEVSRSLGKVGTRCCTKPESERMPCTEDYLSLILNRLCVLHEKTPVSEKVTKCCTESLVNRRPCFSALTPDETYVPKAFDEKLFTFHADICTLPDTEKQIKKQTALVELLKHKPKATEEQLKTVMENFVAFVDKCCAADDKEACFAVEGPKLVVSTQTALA
As to the kind of experiment: Cannabis smoke bubbled through aqueous BSA solution, cannabinoids determined by HPLC (Example 1a). The settings on record: BSA in Hartmann's solution; FIG. 2A. It is filed as binding. On the procedure: Protein-bound cannabinoid was formed according to the following method. An aqueous albumin solution was prepared by adding 20 (mg)) of bovine serum albumin (BSA, from Millipore, USA) to 10 milliliters (ml) ml Hartmann's solution (B. Braun Melsungen AG, Germany). BSA was completely dissolved using a shaker (Heidolph POLYMAX 1040) at 50 revolutions per minute.
A cannabis-filled cigarette was formed using a cigarette paper containing 0.8 gr ground cannabis (provided by “Seach” Israel), from flowers and budding leaves. A Pasteur pipette was cut longitudinally at its wide end, and the cigarette was lodged in to the cut end. The narrow end of the pipette was attached to a syringe. The cigarette was lit in a fume hood, and cigarette smoke was collected in the syringe by pulling the syringe plunger. The smoke was then slowly released into the BSA solution by depressing the plunger. Approximately 350 ml of smoke-containing air was gently bubbled through the BSA solution.
As a control, a solution of 10 ml of Hartmann's solution was prepared without the addition of BSA and a similar procedure of cannabis smoke formation and bubbling was performed.
Samples having a volume of 3 ml of the BSA solution and the control solution were each inserted in to HPLC glass vials and the open vials were inserted into a vacuum oven for 24 hours at 37° Celsius.
The solid phase after the evaporation was crushed in to a fine powder using mortar and pestle. The powder was extracted using Methanol chloroform 9:1 extract solution, sonicated for 30 minutes, and was then filtered and added in to an HPLC testing tube.
HPLC was performed using an HP1050 AGILENT, DAD detector, XBridge C18 3.5 μm 4.6×150 mm column, and according to the following parameters: […]

Data set [7] deals with T3, rice recombinant human serum albumin (HSA) (Homo sapiens, UniProt P02768).
T3 construct: host or cells: rice (recombinant expression host)
T3 sequence (P02768 25-609): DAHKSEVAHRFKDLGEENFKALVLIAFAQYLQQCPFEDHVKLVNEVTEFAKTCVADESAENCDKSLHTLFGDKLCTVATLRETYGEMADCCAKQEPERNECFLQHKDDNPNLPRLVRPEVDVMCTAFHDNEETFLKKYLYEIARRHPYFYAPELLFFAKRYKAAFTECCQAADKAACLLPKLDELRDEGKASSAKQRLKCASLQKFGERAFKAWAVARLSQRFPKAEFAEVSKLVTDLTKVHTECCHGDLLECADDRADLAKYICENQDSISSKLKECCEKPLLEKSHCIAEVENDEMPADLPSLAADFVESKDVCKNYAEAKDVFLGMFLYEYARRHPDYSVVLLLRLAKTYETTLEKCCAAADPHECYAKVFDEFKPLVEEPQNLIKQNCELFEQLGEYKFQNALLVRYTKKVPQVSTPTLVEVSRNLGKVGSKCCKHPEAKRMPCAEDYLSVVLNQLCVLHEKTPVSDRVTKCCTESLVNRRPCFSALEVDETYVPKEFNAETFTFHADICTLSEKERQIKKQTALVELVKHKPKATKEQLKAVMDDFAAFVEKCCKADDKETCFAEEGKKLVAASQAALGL
As to the kind of experiment: Cannabis vapor streamed through protein solution, cannabinoids adsorbed (Example 1f). Conditions: vapor of cannabis high in CBD; 1 mg/ml protein, ethanol:water 1:2, 30° C., 24 hours. It is filed as binding. On the procedure: (§5) The protein solutions were formed using ethanol and water in a 1:2 ratio. The solutions were incubated at 30° C. for 24 hours.

The next data set concerns bovine γ-globulin. The data set is described as above. Conditions: vapor of cannabis high in CBD; 1 mg/ml protein, ethanol:water 1:2, 30° C., 24 hours. It is filed as binding. As to the method:
as §5

Another data set has as its target albumin (BSA) (Bos taurus, UniProt P02769). As to the kind of experiment: Ethanolic cannabinoid solution mixed with aqueous albumin, protein-bound cannabinoid quantified (Example 2b). It is filed as binding, bovine. More on the design: protein-bound cannabinoid quantified, Vapor: unit not given beside the values. Conditions: 100 microliters ethanolic solution + 500 microliters 5 mg/ml BSA, 30° C., 12 hours, non-adsorbed cannabinoids separated. As to the method:
100 microliters of ethanolic cannabinoid solution from cannabis vapor and cannabis smoke were each mixed with 500 microliters of aqueous albumin solution that had been prepared at a concentration of 5 mg albumin (BSA)/ml. The aqueous albumin solution combined with the ethanolic cannabinoid solution was incubated at 30° C. for 12 hours in open tubes. After 12 hours, the tubes were mixed and centrifuged, and non-adsorbed cannabinoids were separated from the solution. Concentrated protein-bound cannabinoid was dried and quantified as described below.

A further data set deals with T4, ovalbumin (hen) (Gallus gallus, UniProt P01012).
T4 sequence (P01012 1-386): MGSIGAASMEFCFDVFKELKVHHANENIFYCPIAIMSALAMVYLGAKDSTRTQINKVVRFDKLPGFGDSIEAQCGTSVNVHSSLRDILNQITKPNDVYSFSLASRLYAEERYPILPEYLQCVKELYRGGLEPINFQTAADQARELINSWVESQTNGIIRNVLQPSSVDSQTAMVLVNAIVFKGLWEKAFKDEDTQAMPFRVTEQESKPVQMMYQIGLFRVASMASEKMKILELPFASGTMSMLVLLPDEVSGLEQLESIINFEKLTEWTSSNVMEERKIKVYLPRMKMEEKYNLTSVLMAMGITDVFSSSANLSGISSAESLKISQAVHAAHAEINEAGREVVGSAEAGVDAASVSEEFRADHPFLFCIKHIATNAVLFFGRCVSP
As to the kind of experiment: Cannabis vapor streamed through protein solution, cannabinoids adsorbed (Example 1f). It is filed as binding. Conditions: vapor of cannabis high in CBD; 1 mg/ml protein, ethanol:water 1:2, 30° C., 24 hours. As to the method:
as §5

Where [8] appears, read: strain of cannabis high in CBD and THC.

T1 sequence (P02769 25-607): as the sequence (P02769 25-607) above
Chain of albumin (BSA) (P02769 25-607): as above

With `CCCCCc1cc(O)c2c(c1)OC(C)(CCC=C(C)C)C=C2` (centres unmarked) [CBC, cannabichromene], on BSA [1], the “percentage of each cannabinoid relative to total cannabinoids adsorbed to protein, Adsorbed to BSA after extract combined with BSA solution” value is given as 3 percentage. Besides, in [2], the “amount of cannabinoids dissolved in ethanol, Smoke” value (“amount … Smoke” below) was 90.873 micrograms/ml and the “amount of cannabinoids dissolved in ethanol, Vapor” value (from here on “amount … Vapor”) is recorded as 54.7468 micrograms/ml. Also, in data set [3] (setting [8]), the “relative concentration of cannabinoids (relative to total cannabinoid content), Smoke passed through ethanol” value is 3.1 percent (weight/weight) and the “relative concentration of cannabinoids (relative to total cannabinoid content), Vapor passed through ethanol” value was 3.8 percent (weight/weight). In [3] (strain of cannabis high in THC), the “relative concentration of cannabinoids (relative to total cannabinoid content), Smoke passed through ethanol” value is on record as 1.3 percent (weight/weight) and the “relative concentration of cannabinoids (relative to total cannabinoid content), Vapor passed through ethanol” value was 0.0 percent (weight/weight). In addition, the “percentage of each cannabinoid relative to total cannabinoids, Extract” value in data set [4] is on record as 1 percentage. Further, on BSA [5] (setting [8]), the “relative concentration of cannabinoids (relative to total cannabinoid content), Smoke passed through BSA/water/ethanol” value was 0.0 percent (weight/weight). The “relative concentration of cannabinoids (relative to total cannabinoid content), Smoke passed through BSA/water/ethanol” value on BSA [5] (strain of cannabis high in THC) was 0.0 percent (weight/weight). In addition, the “active cannabinoids found by HPLC in BSA aqueous solution after cannabis smoke was introduced” value in [6] is recorded as “dissolved in the solution”. Also, the “percentage of each cannabinoid relative to total cannabinoids adsorbed to protein, Rice recombinant HSA” value in data set [7] was found to be 0 percentage. In addition, the “percentage of each cannabinoid relative to total cannabinoids adsorbed to protein, Bovine γ-globulin” value with bovine γ-globulin was found to be 0 percentage. On albumin (BSA), the “protein-bound cannabinoid quantified, Smoke” value turned out to be 2.13 and the “protein-bound cannabinoid quantified, Vapor” value was found to be 1.845.

Turning to `C=C(C)[C@@H]1CCC(C)=C[C@H]1c1c(O)cc(CCCCC)cc1O` [CBD, cannabidiol, reference compound], the “percentage of each cannabinoid relative to total cannabinoids adsorbed to protein, Adsorbed to BSA after extract combined with BSA solution” value on BSA [1] came to 0 percentage. Besides, in data set [2], the “amount … Smoke” value was 0 micrograms/ml and the “amount … Vapor” value is listed as 17.2726 micrograms/ml. Moreover, in [3] (setting [8]), the “relative concentration of cannabinoids (relative to total cannabinoid content), Smoke passed through ethanol” value was 44.7 percent (weight/weight) and the “relative concentration of cannabinoids (relative to total cannabinoid content), Vapor passed through ethanol” value is 51.1 percent (weight/weight). In data set [3] (strain of cannabis high in THC), the “relative concentration of cannabinoids (relative to total cannabinoid content), Smoke passed through ethanol” value is listed as 1.9 percent (weight/weight) and the “relative concentration of cannabinoids (relative to total cannabinoid content), Vapor passed through ethanol” value is on record as 0.3 percent (weight/weight). Besides, the “percentage of each cannabinoid relative to total cannabinoids, Extract” value in [4] was found to be 0 percentage. Moreover, on BSA [5] (setting [8]), the “relative concentration of cannabinoids (relative to total cannabinoid content), Smoke passed through BSA/water/ethanol” value is 22.3 percent (weight/weight) and the “relative concentration of cannabinoids (relative to total cannabinoid content), Vapor passed through BSA/water/ethanol” value is 33.4 percent (weight/weight). The “relative concentration of cannabinoids (relative to total cannabinoid content), Smoke passed through BSA/water/ethanol” value at BSA [5] (strain of cannabis high in THC) is 0.0 percent (weight/weight). Further, the “percentage of each cannabinoid relative to total cannabinoids adsorbed to protein, Rice recombinant HSA” value in data set [7] is recorded as 33 percentage. In addition, on ovalbumin (hen), the “percentage of each cannabinoid relative to total cannabinoids adsorbed to protein, Ovalbumin” value was found to be 55.9 percentage. In addition, in the data set on bovine γ-globulin, the “percentage of each cannabinoid relative to total cannabinoids adsorbed to protein, Bovine γ-globulin” value amounted to 0 percentage. On albumin (BSA), the “protein-bound cannabinoid quantified, Smoke” value amounted to 0 and the “protein-bound cannabinoid quantified, Vapor” value is 0.

`CCCCCc1cc(O)c(C/C=C(\C)CCC=C(C)C)c(O)c1C(=O)O` [CBGA, cannabigerolic acid]: the “percentage of each cannabinoid relative to total cannabinoids adsorbed to protein, Adsorbed to BSA after extract combined with BSA solution” value on BSA [1] is 2 percentage. Moreover, in data set [2], the “amount … Smoke” value stood at 23.088 micrograms/ml and the “amount … Vapor” value came to 28.7668 micrograms/ml. In addition, in data set [3] (setting [8]), the “relative concentration of cannabinoids (relative to total cannabinoid content), Smoke passed through ethanol” value is listed as 0.4 percent (weight/weight) and the “relative concentration of cannabinoids (relative to total cannabinoid content), Vapor passed through ethanol” value is reported as 0.0 percent (weight/weight). Also, in data set [3] (strain of cannabis high in THC), the “relative concentration of cannabinoids (relative to total cannabinoid content), Smoke passed through ethanol” value was 0.6 percent (weight/weight) and the “relative concentration of cannabinoids (relative to total cannabinoid content), Vapor passed through ethanol” value is 0.1 percent (weight/weight). Moreover, in data set [4], the “percentage of each cannabinoid relative to total cannabinoids, Extract” value is 3 percentage. On BSA [5] (setting [8]), the “relative concentration of cannabinoids (relative to total cannabinoid content), Smoke passed through BSA/water/ethanol” value is recorded as 0.0 percent (weight/weight) and the “relative concentration of cannabinoids (relative to total cannabinoid content), Vapor passed through BSA/water/ethanol” value is recorded as 0.0 percent (weight/weight). On BSA [5] (strain of cannabis high in THC), the “relative concentration of cannabinoids (relative to total cannabinoid content), Smoke passed through BSA/water/ethanol” value is given as 0.0 percent (weight/weight). The “percentage of each cannabinoid relative to total cannabinoids adsorbed to protein, Rice recombinant HSA” value in data set [7] amounted to 0 percentage. The “percentage of each cannabinoid relative to total cannabinoids adsorbed to protein, Ovalbumin” value at ovalbumin (hen) is 0 percentage. In addition, the “percentage of each cannabinoid relative to total cannabinoids adsorbed to protein, Bovine γ-globulin” value in the data set with bovine γ-globulin stood at 0 percentage. In addition, at albumin (BSA), the “protein-bound cannabinoid quantified, Smoke” value was found to be 0.58 and the “protein-bound cannabinoid quantified, Vapor” value is reported as 1.43.
